What was measured:
Assay type in all cases: cell-based
CCRFCEM = experiment: Solid tumour and haematological malignancy assay (CellTiterGlo); details: Homo sapiens, CCRF-CEM, 72 h, read-out: IC50 (absolute IC50)
How it was run: (§1)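 Compound pre-warmed to 37° C in medium, added to cells in duplicate; incubated 3 days in CO2 incubator; viability measured with CellTiterGlo. DMSO final 0.5%.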

HepG2 [1] = experiment: as above; details: Homo sapiens, HepG2, 72 h, read-out: IC50 (absolute IC50)
How it was run: as §1

KG-1 [2] = experiment: as above; details: Homo sapiens, KG-1, 72 h, read-out: IC50 (absolute IC50)
How it was run: as §1

HL-60 = experiment: CellTiterGlo viability assay, initial screening; details: Homo sapiens, HL-60, 72 h, read-out: IC50 (relative IC50)
How it was run: (§2)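 Viability is measured with CellTiter-Glo following three days of treatment. Each compound runs as a nine-point titration at 3.16-fold steps, with a lowest final concentration of 19.9 nM, in duplicate wells at 0.5% final DMSO.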

MOLT-4 [3] = experiment: CellTiterGlo viability assay, initial screening; details: Homo sapiens, MOLT-4, 72 h, read-out: IC50 (relative IC50)
How it was run: as §2

MCF-7 = experiment: CellTiterGlo viability assay, initial screening; details: Homo sapiens, MCF7, 72 h, read-out: IC50 (relative IC50)
How it was run: as §2

K562 = experiment: CellTiterGlo viability assay, initial screening; details: Homo sapiens, K562, 72 h, read-out: IC50 (relative IC50)
How it was run: as §2

HepG2 [4] = experiment: CellTiterGlo viability assay, initial screening; details: Homo sapiens, HepG2, 72 h, read-out: IC50 (relative IC50)
How it was run: as §2

KG-1 [5] = experiment: CellTiterGlo viability assay, initial screening; details: Homo sapiens, KG-1, 72 h, read-out: IC50 (relative IC50)
How it was run: as §2

MOLT-4 [6] = experiment: Solid tumour and haematological malignancy assay (CellTiterGlo); details: Homo sapiens, MOLT-4, 72 h, read-out: IC50 (absolute IC50)
How it was run: (§3)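 Cells were treated in duplicate with a 9-point, 3.16-fold dilution series for about 72 h under standard growth conditions. Final concentrations ran from […] to 19.9 nM, with 0.5% DMSO. Viability was read by CellTiter-Glo luminescence.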

RL = experiment: as above; details: Homo sapiens, 72 h
How it was run: as §3

MV4-11 = experiment: as above; details: Homo sapiens, MV4-11, 72 h
How it was run: as §3

Jurkat = experiment: as above; details: Homo sapiens, 72 h, read-out: IC50 (absolute IC50)
How it was run: as §3

NCI-H929 = experiment: as above; details: Homo sapiens, NCI-H929, 72 h
How it was run: as §3

HS445 = experiment: as above; details: Hs 445, 72 h, read-out: IC50 (absolute IC50)
How it was run: as §3

RPMI-8226 = experiment: as above; details: Homo sapiens, RPMI-8226, 72 h, read-out: IC50 (absolute IC50)
How it was run: as §3

Z138 = experiment: as above; details: Homo sapiens, Z-138, 72 h, read-out: IC50 (absolute IC50)
How it was run: as §3

THP-1 = experiment: as above; details: Homo sapiens, THP-1, 72 h
How it was run: as §3

SW620 = experiment: as above; details: Homo sapiens, SW-620, 72 h
How it was run: as §3

BxPC-3 = experiment: as above; details: Homo sapiens, BXPC-3, 72 h, read-out: IC50 (absolute IC50)
How it was run: as §3

Compound: CCOC(=O)CCc1ccccc1OP(=O)(N[C@@H](C)C(=O)OCc1ccccc1)OC[C@@H]1C[C@@H](O)[C@H](n2cnc3c(N)ncnc32)O1 (stereo partly drawn) [F, (2S)-benzyl 2-(((((2S,4R,5R)-5-(6-amino-9H-purin-9-yl)-4-hydroxytetrahydrofuran-2-yl)methoxy)(2-(3-ethoxy-3-oxopropyl)phenoxy)phosphoryl)amino)propanoate]
- IC50 (CCRFCEM): 0.1 to 5 µM
- IC50 (HepG2 [1]): 15 to 100 µM
- IC50 (KG-1 [2]): 15 to 100 µM
- IC50 (HL-60): 15 to 100 µM
- IC50 (MOLT-4 [3]): 0.1 to 5 µM
- IC50 (MCF-7): 5 to 15 µM
- IC50 (K562): 15 to 100 µM
- IC50 (HepG2 [4]): 15 to 100 µM
- IC50 (KG-1 [5]): 15 to 100 µM
- IC50 (MOLT-4 [6]): 0.1 to 5 µM
- IC50 (RL; read-out: IC50 (absolute IC50)): 5 to 15 µM
- Emax (RL; read-out: MI %): 90%
- IC50 (MV4-11; read-out: IC50 (absolute IC50)): 0.1 to 5 µM
- Emax (MV4-11; read-out: MI %): 100%
- IC50 (Jurkat): 0.1 to 5 µM
- IC50 (NCI-H929; read-out: IC50 (absolute IC50)): 5 to 15 µM
- Emax (NCI-H929; read-out: MI %): 100%
- IC50 (HS445): 15 to 100 µM
- IC50 (RPMI-8226): 15 to 100 µM
- IC50 (Z138): 15 to 100 µM
- IC50 (THP-1; read-out: IC50 (absolute IC50)): 15 to 100 µM
- Emax (THP-1; read-out: MI %): 100%
- IC50 (SW620; read-out: IC50 (absolute IC50)): 15 to 100 µM
- Emax (SW620; read-out: MI %): 90%
- IC50 (BxPC-3): 15 to 100 µM

Reference: patent US10570168B2, “2′ and/or 5′ amino-acid ester phosphoramidate 3′-deoxy adenosine derivatives as anti- cancer compounds” (NuCana plc, priority 2014, dated 2020)
